Reference: patent US20070043062A1, “Isoxazoles as peptide deformylase inhibitors” (Arpida A/S, priority 2003, published 2007)

How the values were obtained:
S. aureus, PDF enzyme = biological target: T1, S. aureus, PDF enzyme (Staphylococcus aureus, UniProt P68826); experiment: Bacterial peptide deformylase (PDF) assay, colorimetric cell free, f-Met-Ala substrate, TNBS detection at 420 nm; assay type: biochemical; conditions: means of three experiments; 30 minutes at room temperature, pH 7.2; read-out: PDF enzyme inhibitory activity IC50, S. aureus, PDF enzyme
T1 sequence (P68826 1-183): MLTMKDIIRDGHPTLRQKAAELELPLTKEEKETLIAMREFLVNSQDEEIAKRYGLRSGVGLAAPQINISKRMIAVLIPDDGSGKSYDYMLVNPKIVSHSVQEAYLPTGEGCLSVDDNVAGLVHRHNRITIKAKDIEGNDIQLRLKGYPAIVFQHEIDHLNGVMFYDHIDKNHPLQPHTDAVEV
Description: To find inhibitors of Peptide Deformylase (PDF), a colorimetric cell free assay for measuring the enzymatic activity of PDF has been adapted to the microtiter plate format (96 wells). The assay comprises three components, purified PDF, f-Met-Ala as substrate and TNBS as the detecting agent of primary amino groups. The resulting TNP-NH-Met-Ala sulfite complex can be detected at 420 nm. PDF enzymes, containing Fe^2+ as the native metal, are purified and are stabilized by the addition of tris(2-carboxyethyl)phosphine (TCEP).
(§1) The IC50 value of a compound of the invention as a bacterial PDF inhibitor was determined using the following assay.
(§2) Assay buffer: 0.1M MOPS pH was adjusted to 7.2 with NaOH, containing 0.25 M NaCl, 100 μg/mL catalase and 1 mg/mL BSA.
S. aureus (15 mg/ml) 10 μl+990 μl Assay buffer, 0.3 μl per ml enzyme mix.
(§3) Substrate mix: 10 mM f-Met-Ala was made up from 200 mM f-Met-Ala in methanol with assay buffer.
(§4) TNBS solution: Freshly dilute 1 M TNBS stock solution diluted 1:10 with water.
(§5) Buffer C, 0.5 M borate buffer adjusted to pH 9.5 with NaOH.
(§6) Buffer D: 0.2 ml of freshly prepared 0.5 M Na2SO3 was mixed with 9.8 mL of 0.5M NaH2PO4.
(§7) Inhibitor solution: 2 mM Sodium 4-(hydroxymercurio) benzoate in assay buffer.
(§8) Compound mix: Compound of formula I dissolved in DMSO in a 10 mg/mL stock solution. Further dilutions were made in DMSO in the concentration range between 0.05 to 100 mM.
The assay was performed in a 96 Microtiter plate containing test compound. To each well containing test compound mix was added 75 microliter of enzyme mix followed by the addition of 25 microliter of substrate mix. The resulting mix was incubated for 30 minutes at room temperature with shaking. TNBS solution (50 microliter/well) was added and the resulting mixture was incubated for 15 minutes under shaking. Buffer C was then added (20 microliter/well). After incubating at room temperature for 15 minutes under shaking, buffer D was added (50 microliter/well). The optical […] was then measured at 420 nm, thereby determining the IC50 value.

E. coli, PDF enzyme = E. coli, PDF enzyme (Escherichia coli, UniProt P0A6K3); experiment: as above; assay type: biochemical
Procedure: The assay comprises three components, purified PDF, f-Met-Ala as substrate and TNBS as the detecting agent of primary amino groups. The resulting TNP-NH-Met-Ala sulfite complex can be detected at 420 nm. PDF enzymes, containing Fe^2+ as the native metal, are purified and are stabilized by the addition of tris(2-carboxyethyl)phosphine (TCEP).
as §1, §2
E. coli enzyme (2.5 mg/ml) 10 μl+290 μl Assay buffer, 1 μl per ml enzyme mix.
as §3, §4, §5, §6, §7, §8
The assay was performed in a 96 Microtiter plate containing test compound. […] The optical diffraction was then measured at 420 nm, thereby determining the IC50 value.

Sequence of E. coli, PDF enzyme (P0A6K3 whole entry): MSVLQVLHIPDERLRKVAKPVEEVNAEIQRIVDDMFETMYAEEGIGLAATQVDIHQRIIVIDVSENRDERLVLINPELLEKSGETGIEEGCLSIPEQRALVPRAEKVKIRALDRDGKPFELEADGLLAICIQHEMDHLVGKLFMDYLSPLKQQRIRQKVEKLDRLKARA

Structure (SMILES) | melting point | IC50 (S. aureus, PDF enzyme) | IC50 (E. coli, PDF enzyme)
O=C(NO)c1cc(CSc2ccccc2OC(F)(F)F)on1 | 108 to 109 °C (dec.) | – | –
O=C(NO)c1cc(CSc2nccc(-c3cccs3)n2)on1 | 165 to 168 °C (dec.) | – | –
CC(c1cc(C(=O)NO)no1)S(=O)(=O)c1ccc(Cl)cc1 (stereo not shown) | 162 °C (dec.) | – | –
Cc1ccc(SCc2cc(C(=O)NO)no2)cc1 [Example 1, 5-(4-Toluenesulfanylmethyl)-isoxazole-3-carboxylic acid hydroxyamide] | 94 to 96 °C (dec.) | 4000 nM | –
O=C(NO)c1cc(CSc2ccc(Cl)cc2)on1 [Example 2, 5-(4-Chloro-phenylsulfanylmethyl)-isoxazole-3-carboxylic acid hydroxyamide] | – | 1300 nM | –
O=C(NO)c1cc(CSc2cccc(Cl)c2)on1 [Example 3, 5-(3-Chloro-phenylsulfanylmethyl)-isoxazole-3-carboxylic acid hydroxyamide] | 105 to 107 °C (dec.) | 2300 nM | –
O=C(NO)c1cc(CSc2ccccc2Cl)on1 [Example 4, 5-(2-Chloro-phenylsulfanylmethyl)-isoxazole-3-carboxylic acid hydroxyamide] | 141 to 143 °C (dec.) | 3800 nM | –
O=C(NO)c1cc(CSc2ccc(Cl)c(Cl)c2)on1 [Example 5, 5-(3,4-Dichloro-phenylsulfanylmethyl)-isoxazole-3-carboxylic acid hydroxyamide] | 99 to 102 °C (dec.) | 2000 nM | –
O=C(NO)c1cc(CSc2ccccc2Br)on1 [Example 6, 5-(2-Bromo-phenylsulfanylmethyl)-isoxazole-3-carboxylic acid hydroxyamide] | 135 to 136 °C (dec.) | 4900 nM | –
O=C(NO)c1cc(CSc2cccc(Br)c2)on1 [Example 7, 5-(3-Bromo-phenylsulfanylmethyl)-isoxazole-3-carboxylic acid hydroxyamide] | 104 to 105 °C | 2000 nM | –
CC(C)c1ccccc1SCc1cc(C(=O)NO)no1 [Example 8, 5-(2-Isopropyl-phenylsulfanylmethyl)-isoxazole-3-carboxylic acid hydroxyamide] | 121 to 123 °C (dec.) | 7600 nM | –
Cc1cc(C)c(SCc2cc(C(=O)NO)no2)c(C)c1 [Example 9, 5-(2,4,6-Trimethyl-phenylsulfanylmethyl)-isoxazole-3-carboxylic acid hydroxyamide] | 133 to 135 °C (dec.) | 37700 nM | –
COc1cccc(SCc2cc(C(=O)NO)no2)c1 [Example 11, 5-(3-Methoxy-phenylsulfanylmethyl)-isoxazole-3-carboxylic acid hydroxyamide] | 116 °C | 2200 nM | –
O=C(NO)c1cc(CSc2ccc(F)cc2)on1 [Example 12, 5-(4-Fluoro-phenylsulfanylmethyl)-isoxazole-3-carboxylic acid hydroxyamide] | 98 to 99 °C (dec.) | 1500 nM | –
O=C(NO)c1cc(CSc2ccc(C(F)(F)F)cc2)on1 [Example 13, 5-(4-Trifluoromethyl-phenylsulfanylmethyl)-isoxazole-3-carboxylic acid hydroxyamide] | 129 °C | 8700 nM | –
O=C(NO)c1cc(CSc2ccccc2C(F)(F)F)on1 [Example 14, 5-(2-Trifluoromethyl-phenylsulfanylmethyl)-isoxazole-3-carboxylic acid hydroxyamide] | 140 to 144 °C (dec.) | 9300 nM | –
O=C(NO)c1cc(CSCc2cc3ccccc3s2)on1 [Example 16, 5-(Benzothiophen-2-ylmethylsulfanylmethyl)-isoxazole-3-carboxylic acid hydroxyamide] | 143 to 145 °C (dec.) | 12700 nM | –
O=C(NO)c1cc(CSCc2cccc(C(F)(F)F)c2)on1 [Example 17, 5-(3-Trifluoromethyl-benzylsulfanylmethyl)-isoxazole-3-carboxylic acid hydroxyamide] | 109 to 110 °C | 2200 nM | –
Cc1ccc(S(=O)(=O)Cc2cc(C(=O)NO)no2)cc1 [Example 33, 5-(4-Toluenesulfonylmethyl)-isoxazole-3-carboxylic acid hydroxyamide] | – | 1400 nM | 11500 nM
O=C(NO)c1cc(CS(=O)(=O)c2ccc(Cl)cc2)on1 [Example 34, 5-(4-Chloro-benzenesulfonylmethyl)-isoxazole-3-carboxylic acid hydroxyamide] | – | 800 nM | –
O=C(NO)c1cc(CS(=O)(=O)c2cccc(Cl)c2)on1 [Example 35, 5-(3-Chloro-benzenesulfonylmethyl)-isoxazole-3-carboxylic acid hydroxyamide] | – | 1700 nM | –
CC(C)c1ccccc1S(=O)(=O)Cc1cc(C(=O)NO)no1 [Example 36, 5-(2-Isopropyl-benzenesulfonylmethyl)-isoxazole-3-carboxylic acid hydroxyamide] | 170 °C (dec.) | 3400 nM | –
COc1cccc(S(=O)(=O)Cc2cc(C(=O)NO)no2)c1 [Example 37, 5-(3-Methoxy-benzenesulfonylmethyl)-isoxazole-3-carboxylic acid hydroxyamide] | – | 6500 nM | –
Cc1ccc([S+]([O-])Cc2cc(C(=O)NO)no2)cc1 (stereo not shown) [Example 38, 5-(4-Toluenesulfinylmethyl)-isoxazole-3-carboxylic acid hydroxyamide] | – | 900 nM | –
